Data taken from PubChem BioAssay AID256 (DTP/NCI, 2004).
Values joined by “and” are separate entries in the source; they are usually repeats but may differ in a detail not shown here. Identical values can stand only once. Inconclusive results and toxic doses are left out. The calls were made as follows: active = survival T/C of 150% or more; inactive = T/C below 125% in these data.

Test system: CD2F1 mice, L1210 leukemia ip, survival T/C
Test: NCI In Vivo Anticancer Drug Screen. Data for tumor model L1210 Leukemia (intraperitoneal) in CD2F1 (CDF1) mice
Details: higher = longer survival
How it was run: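 Vehicle-treated tumor-bearing mice served as controls (C) for compound-treated mice (T). Reported figure is T divided by C.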

[1] = endpoint: mean survival time, dose: 12.5 mg/kg/injection, schedule: Q01DX009 (ip), vehicle: saline with Tween-80
[2] = endpoint: mean survival time, dose: 25.0 mg/kg/injection, schedule: Q01DX009 (ip), vehicle: saline with Tween-80
[3] = endpoint: mean survival time, dose: 100.0 mg/kg/injection, schedule: Q01DX009 (ip), vehicle: saline with Tween-80
[4] = endpoint: mean survival time, dose: 100.0 mg/kg/injection, schedule: Q04DX003 (ip), vehicle: saline with Tween-80
[5] = endpoint: mean survival time, dose: 200.0 mg/kg/injection, schedule: Q04DX003 (ip), vehicle: saline with Tween-80
[6] = endpoint: mean survival time, dose: 400.0 mg/kg/injection, schedule: Q04DX003 (ip), vehicle: saline with Tween-80
[7] = endpoint: mean survival time, dose: 100.0 mg/kg/injection, schedule: Q04DX003 (ip), vehicle: acetone
[8] = endpoint: mean survival time, dose: 200.0 mg/kg/injection, schedule: Q04DX003 (ip), vehicle: acetone
[9] = endpoint: mean survival time, dose: 400.0 mg/kg/injection, schedule: Q04DX003 (ip), vehicle: acetone
[10] = endpoint: mean survival time, dose: 200.0 mg/kg/injection, schedule: Q01DX009 (ip), vehicle: saline with Tween-80
[11] = endpoint: mean survival time, dose: 400.0 mg/kg/injection, schedule: Q01DX009 (ip), vehicle: saline with Tween-80

Measured: T/C

CC(=O)Nc1ccc(/C=N/NC(=O)CNC(=O)Nc2cccc([N+](=O)[O-])c2)cc1
inactive: [1] 87 % of control | [2] 91 % of control | endpoint: mean survival time, dose: 50.0 mg/kg/injection, schedule: Q01DX009 (ip), vehicle: saline with Tween-80 91 % of control | [3] 88 % of control

CN(C)c1ccc(N=Nc2ccc(S(=O)(=O)O)cc2)cc1.CN(C)c1ccc(N=Nc2ccc(S(=O)(=O)O)cc2)cc1.[NH-]C1CCCCC1[NH-].[Pt+2]
inactive: endpoint: median survival time, dose: 3.12 mg/kg/injection, schedule: Q04DX003 (ip), vehicle: saline 121 % of control and 107 % of control | endpoint: median survival time, dose: 6.25 mg/kg/injection, schedule: Q04DX003 (ip), vehicle: saline 109 % of control | endpoint: median survival time, dose: 100.0 mg/kg/injection, schedule: Q04DX003 (ip), vehicle: saline 105 % of control | endpoint: median survival time, dose: 200.0 mg/kg/injection, schedule: Q04DX003 (ip), vehicle: saline 116 % of control

CC(=O)[CH-]C(=O)C(=O)[CH-]C(C)=O.[Cu+2]
inactive: endpoint: mean survival time, dose: 20.0 mg/kg/injection, schedule: Q01DX001 (ip), vehicle: saline with Tween-80 96 % of control | endpoint: mean survival time, dose: 40.0 mg/kg/injection, schedule: Q01DX001 (ip), vehicle: saline with Tween-80 96 % of control | endpoint: mean survival time, dose: 80.0 mg/kg/injection, schedule: Q01DX001 (ip), vehicle: saline with Tween-80 94 % of control

CC(C)C(Br)C(=O)NC(Cc1ccccc1)C(=O)O (stereo not given)
inactive: [4] 101 % of control | [5] 110 % of control | [6] 122 % of control

COc1ccc2c(Br)cccc2c1
inactive: [7] 102 % of control | [8] 94 % of control | [9] 92 % of control

CC(=O)Nc1cccc(/C=C/c2ccc([N+](=O)[O-])cc2)c1
inactive: endpoint: mean survival time, dose: 100.0 mg/kg/injection, schedule: Q01DX001 (ip), vehicle: Klucel (hydroxypropylcellulose) (HPC) 100 % of control | endpoint: mean survival time, dose: 200.0 mg/kg/injection, schedule: Q01DX001 (ip), vehicle: Klucel (hydroxypropylcellulose) (HPC) 103 % of control | endpoint: mean survival time, dose: 400.0 mg/kg/injection, schedule: Q01DX001 (ip), vehicle: Klucel (hydroxypropylcellulose) (HPC) 93 % of control

CCCNc1ncc(C(=O)O)c(=O)[nH]1
inactive: endpoint: mean survival time, dose: 1.56 mg/kg/injection, schedule: Q01DX009 (ip), vehicle: saline sonified 100 % of control | endpoint: mean survival time, dose: 3.1 mg/kg/injection, schedule: Q01DX009 (ip), vehicle: saline sonified 100 % of control | endpoint: mean survival time, dose: 6.25 mg/kg/injection, schedule: Q01DX009 (ip), vehicle: saline sonified 102 % of control

C#CCOCCCC(=O)O
inactive: [7] 101 % of control | [8] 101 % of control | [9] 95 % of control

Cc1ccc([N+](=O)[O-])cc1NC(=O)C(Cl)(Cl)Cl
inactive: [4] 93 % of control | [5] 93 % of control | [6] 107 % of control

Nc1ncnc2c1nc([Se])n2C1OC(CO)C(O)C1O (stereo not given)
inactive: endpoint: mean survival time, dose: 12.5 mg/kg/injection, schedule: Q01DX005 (ip), vehicle: water 100 % of control | endpoint: mean survival time, dose: 25.0 mg/kg/injection, schedule: Q01DX005 (ip), vehicle: water 97 % of control | endpoint: mean survival time, dose: 50.0 mg/kg/injection, schedule: Q01DX005 (ip), vehicle: water 100 % of control | endpoint: mean survival time, dose: 100.0 mg/kg/injection, schedule: Q01DX005 (ip), vehicle: water 95 % of control | endpoint: mean survival time, dose: 200.0 mg/kg/injection, schedule: Q01DX005 (ip), vehicle: water 90 % of control

c1ccc(N/N=C(/CC/C(=N\Nc2ccccc2)c2ccccc2)c2ccccc2)cc1
inactive: endpoint: mean survival time, dose: 100.0 mg/kg/injection, schedule: Q01DX001 (ip), vehicle: saline with Tween-80 96 % of control | endpoint: mean survival time, dose: 200.0 mg/kg/injection, schedule: Q01DX001 (ip), vehicle: saline with Tween-80 96 % of control | endpoint: mean survival time, dose: 400.0 mg/kg/injection, schedule: Q01DX001 (ip), vehicle: saline with Tween-80 93 % of control

COc1ccc(/C=N/NC(=O)CNC(=O)Nc2cccc(Cl)c2)cc1
inactive: [1] 91 % of control | [2] 91 % of control

CN(Cc1ccccc1)/C(N)=N/N
inactive: endpoint: mean survival time, dose: 75.0 mg/kg/injection, schedule: Q01DX001 (ip), vehicle: saline 102 % of control | endpoint: mean survival time, dose: 150.0 mg/kg/injection, schedule: Q01DX001 (ip), vehicle: saline 107 % of control

CC(=O)Oc1[nH]c(=O)c2cccc3c2c1CCC3
inactive: endpoint: median survival time, dose: 25.0 mg/kg/injection, schedule: Q01DX009 (ip), vehicle: saline with Tween-80 106 % of control | endpoint: median survival time, dose: 50.0 mg/kg/injection, schedule: Q01DX009 (ip), vehicle: saline with Tween-80 104 % of control | endpoint: median survival time, dose: 100.0 mg/kg/injection, schedule: Q01DX009 (ip), vehicle: saline with Tween-80 100 % of control and 104 % of control | endpoint: median survival time, dose: 200.0 mg/kg/injection, schedule: Q01DX009 (ip), vehicle: saline with Tween-80 97 % of control and 103 % of control | endpoint: median survival time, dose: 400.0 mg/kg/injection, schedule: Q01DX009 (ip), vehicle: saline with Tween-80 97 % of control and 108 % of control

Cc1c2ccccc2c(C)c2cnccc12
inactive: [3] 97 % of control | [10] 97 % of control | [11] 92 % of control

NC(CCC(=O)NC(CS)C(=O)NCC(=O)O)C(=O)O (stereo not given)
inactive: endpoint: median survival time, dose: 25.0 mg/kg/injection, schedule: Q01DX009 (ip), vehicle: saline 100 % of control | endpoint: median survival time, dose: 50.0 mg/kg/injection, schedule: Q01DX009 (ip), vehicle: saline 110 % of control | endpoint: median survival time, dose: 100.0 mg/kg/injection, schedule: Q01DX009 (ip), vehicle: saline 104 % of control | endpoint: median survival time, dose: 200.0 mg/kg/injection, schedule: Q01DX009 (ip), vehicle: saline 104 % of control | endpoint: median survival time, dose: 400.0 mg/kg/injection, schedule: Q01DX009 (ip), vehicle: saline 94 % of control

OCC1(CO)COC2(CCCCC2)N1
inactive: endpoint: mean survival time, dose: 12.5 mg/kg/injection, schedule: Q01DX009 (ip), vehicle: saline 101 % of control and 103 % of control | endpoint: mean survival time, dose: 25.0 mg/kg/injection, schedule: Q01DX009 (ip), vehicle: saline 103 % of control and 104 % of control | endpoint: mean survival time, dose: 50.0 mg/kg/injection, schedule: Q01DX009 (ip), vehicle: saline 98 % of control | endpoint: mean survival time, dose: 100.0 mg/kg/injection, schedule: Q01DX009 (ip), vehicle: saline 95 % of control and 103 % of control | endpoint: mean survival time, dose: 200.0 mg/kg/injection, schedule: Q01DX009 (ip), vehicle: saline 97 % of control | endpoint: mean survival time, dose: 400.0 mg/kg/injection, schedule: Q01DX009 (ip), vehicle: saline 95 % of control and 104 % of control

Nc1ncnc2c1ncn2CCCN1C(=O)c2ccccc2C1=O
inactive: [3] 93 % of control | [10] 95 % of control | [11] 101 % of control

O=C1NCC(C2CC2)(C2CC2)O1
inactive: endpoint: mean survival time, dose: 100.0 mg/kg/injection, schedule: Q04DX002 (ip), vehicle: saline with Tween-80 108 % of control | endpoint: mean survival time, dose: 200.0 mg/kg/injection, schedule: Q04DX002 (ip), vehicle: saline with Tween-80 100 % of control | endpoint: mean survival time, dose: 400.0 mg/kg/injection, schedule: Q04DX002 (ip), vehicle: saline with Tween-80 100 % of control

O=[N+]([O-])c1ccc2nc3ccccc3cc2c1
inactive: [4] 92 % of control | [5] 92 % of control | [6] 91 % of control

CN(C)c1ccc(C=NCCCN=Cc2ccc(N(C)C)cc2)cc1
inactive: [3] 96 % of control | [4] 95 % of control | [10] 90 % of control | [5] 107 % of control | [11] 93 % of control | [6] 86 % of control
